According to patent US5160526A, “Alkene stabilizers for 3-isothiazolone compounds” (priority 1991, dated 1992):
Where two headings read alike, the source gives them in different places.

Assays:
[1] = assay type: physicochemical; settings: 2-propanol, 55° C
Procedure: Varying amounts of DHP were added and the vials put in a 55° C. oven. Active ingredient analysis was done periodically.

[2] = assay type: physicochemical; settings: kerosene/diethylene glycol butyl ether
Procedure: In a formulation comprised of 3 parts by weight of a mixture of 5-chloro-2-methyl-3-isothiazolone and 2-methyl-3-isothiazolone in a 3:1 ratio, 94 parts by weight of a mixture of kerosene […] and diethylene glycol butyl ether (20 parts by weight), 3 parts by weight norbornene stabilizer was added. The control had no norbornene.
Example 9 was repeated except using 1 part by weight norbornene. No loss of 5-chloro-2-methyl-3-isothiazolone was observed after eight weeks at 55° C.
Example 9 was repeated except using 1-tetradecene as stabilizer resulting in 86% 5-chloro-2-methyl-3-isothiazolone remaining after four weeks at 55° C. and complete loss by eight weeks.

[3] = assay type: physicochemical; settings: DPG, 55° C
Procedure: This solution was distributed into 6 vials (3 g each) and varying amounts of cyclohexene were added. The vials were then heated at 55° C. and analyzed periodically.

[4] = 2-propanol + 2% water, 55° C
Procedure: A solution of 5-chloro-2methyl-3-isothiazolone ("5-Chloro") and 2-methyl-3-isothiazolone ("2-Methyl") (3.11 g) was prepared in 2-propanol (12.1 g). This solution was distributed in 6 vials. Water (2%) and varying amounts of norbornene were then added. These were then put in a 55° C. oven and analyzed periodically.

[5] = Stabilization of 5-Chloro and 2-Methyl mixture by norbornene in 2-propanol, 55° C oven; assay type: physicochemical
Excerpt: This solution was distributed into 6 vials and varying amounts of norbornene added.

[6] = Stabilization of 5-Chloro and 2-Methyl mixture by norbornene in dipropylene glycol containing 0.5% water, 55° C oven; assay type: physicochemical; settings: DPG (0.5% water)
Procedure: To 19.9 g of dipropylene glycol was added 0.1 g of water. […] This solution was distributed into 6 vials and varying amounts of norbornene were added.

[7] = assay type: physicochemical; settings: 2-propanol/water systems

Question: For Cn1sc(Cl)cc1=O [5-chloro-2-methyl-3-isothiazolone], which “2-Methyl (%) / 5-Chloro (%)” value ([1]; 0% DHP, 0 days) is on record?
Answer: 11.6%

Question: And the “2-Methyl (%) / 5-Chloro (%)” value ([1]; 0% DHP, 12 days)?
Answer: 0.4%

Question: What about the “2-Methyl (%) / 5-Chloro (%)” value ([1]; 3.5% DHP, 0 days) of the same molecule?
Answer: 11.1%

Question: And the “2-Methyl (%) / 5-Chloro (%)” value ([1]; 3.5% DHP, 12 days)?
Answer: 0.1%

Question: What about the “2-Methyl (%) / 5-Chloro (%)” value ([1]; 6.3% DHP, 0 days) of the same molecule?
Answer: 10.8%

Question: What about the “2-Methyl (%) / 5-Chloro (%)” value ([1]; 6.3% DHP, 12 days) of the same molecule?
Answer: 0.1%

Question: What about the “2-Methyl (%) / 5-Chloro (%)” value ([1]; 11.8% DHP, 0 days) of the same molecule?
Answer: 10.2%

Question: What about the “2-Methyl (%) / 5-Chloro (%)” value ([1]; 11.8% DHP, 12 days) of the same molecule?
Answer: 0.6%

Question: What about the “2-Methyl (%) / 5-Chloro (%)” value ([1]; 16.7% DHP, 0 days) of the same molecule?
Answer: 9.7%

Question: And the “2-Methyl (%) / 5-Chloro (%)” value ([1]; 16.7% DHP, 12 days)?
Answer: 0.5%

Question: What about the “2-Methyl (%) / 5-Chloro (%)” value ([1]; 21.1% DHP, 0 days) of the same molecule?
Answer: 9.2%

Question: And the “2-Methyl (%) / 5-Chloro (%)” value ([1]; 21.1% DHP, 12 days)?
Answer: 0.4%

Question: And the “loss of 5-chloro-2-methyl-3-isothiazolone” value ([2]; 1-tetradecene as stabilizer, by eight weeks at 55° C)?
Answer: complete loss

Question: What about the “loss of 5-chloro-2-methyl-3-isothiazolone” value ([2]; 1 part by weight norbornene, eight weeks at 55° C) of the same molecule?
Answer: No loss

Question: What about the 5-chloro-2-methyl-3-isothiazolone left ([2]; control, no norbornene, eight weeks at 55° C) of the same molecule?
Answer: no 5-chloro-2-methyl-3-isothiazolone left

Question: And the 5-chloro-2-methyl-3-isothiazolone remaining ([2]; 672 h)?
Answer: 86%

Question: And the 5-chloro-2-methyl-3-isothiazolone remaining ([2]; 1344 h)?
Answer: 100%

Question: What about the “2-Methyl (%) / 5-Chloro (%)” value ([3]; 0% cyclohexene, 0 days) of the same molecule?
Answer: 11.4%

Question: What about the “2-Methyl (%) / 5-Chloro (%)” value ([3]; 0% cyclohexene, 13 days) of the same molecule?
Answer: < 0.1%

Question: And the “2-Methyl (%) / 5-Chloro (%)” value ([3]; 3.2% cyclohexene, 0 days)?
Answer: 10.1%

Question: What about the “2-Methyl (%) / 5-Chloro (%)” value ([3]; 3.2% cyclohexene, 13 days) of the same molecule?
Answer: 0.19%

Question: And the “2-Methyl (%) / 5-Chloro (%)” value ([3]; 6.8% cyclohexene, 0 days)?
Answer: 10.9%

Question: What about the “2-Methyl (%) / 5-Chloro (%)” value ([3]; 6.8% cyclohexene, 13 days) of the same molecule?
Answer: 0.10%

Question: What about the “2-Methyl (%) / 5-Chloro (%)” value ([3]; 9.1% cyclohexene, 0 days) of the same molecule?
Answer: 10.6%

Question: What about the “2-Methyl (%) / 5-Chloro (%)” value ([3]; 9.1% cyclohexene, 13 days) of the same molecule?
Answer: 8.6%

Question: What about the “2-Methyl (%) / 5-Chloro (%)” value ([3]; 9.1% cyclohexene, 30 days) of the same molecule?
Answer: 0.0%

Question: And the “2-Methyl (%) / 5-Chloro (%)” value ([3]; 11.8% cyclohexene, 0 days)?
Answer: 10.5%

Question: And the “2-Methyl (%) / 5-Chloro (%)” value ([3]; 11.8% cyclohexene, 13 days)?
Answer: 7.9%

Question: What about the “2-Methyl (%) / 5-Chloro (%)” value ([3]; 11.8% cyclohexene, 30 days) of the same molecule?
Answer: 0.0%

Question: What about the “2-Methyl (%) / 5-Chloro (%)” value ([3]; 16.7% cyclohexene, 0 days) of the same molecule?
Answer: 10.2%

Question: What about the “2-Methyl (%) / 5-Chloro (%)” value ([3]; 16.7% cyclohexene, 13 days) of the same molecule?
Answer: 9.0%

Question: And the “2-Methyl (%) / 5-Chloro (%)” value ([3]; 16.7% cyclohexene, 30 days)?
Answer: 0.0%

Question: What about the “2-Methyl (%) / 5-Chloro (%)” value ([4]; 0% norbornene, 0 days) of the same molecule?
Answer: 12.2%

Question: And the “2-Methyl (%) / 5-Chloro (%)” value ([4]; 0% norbornene, 7 days)?
Answer: 0.23%

Question: And the “2-Methyl (%) / 5-Chloro (%)” value ([4]; 1.2% norbornene, 0 days)?
Answer: 16.7%

Question: What about the “2-Methyl (%) / 5-Chloro (%)” value ([4]; 1.2% norbornene, 7 days) of the same molecule?
Answer: 0.09%

Question: What about the “2-Methyl (%) / 5-Chloro (%)” value ([4]; 2.3% norbornene, 0 days) of the same molecule?
Answer: 16.5%

Question: What about the “2-Methyl (%) / 5-Chloro (%)” value ([4]; 2.3% norbornene, 7 days) of the same molecule?
Answer: 0.09%

Question: And the “2-Methyl (%) / 5-Chloro (%)” value ([4]; 4.2% norbornene, 0 days)?
Answer: 16.2%

Question: What about the “2-Methyl (%) / 5-Chloro (%)” value ([4]; 4.2% norbornene, 7 days) of the same molecule?
Answer: 0.07%

Question: What about the “2-Methyl (%) / 5-Chloro (%)” value ([4]; 8.1% norbornene, 0 days) of the same molecule?
Answer: 15.7%

Question: And the “2-Methyl (%) / 5-Chloro (%)” value ([4]; 8.1% norbornene, 7 days)?
Answer: < 0.1%

Question: What about the “2-Methyl (%) / 5-Chloro (%)” value ([4]; 14.1% norbornene, 0 days) of the same molecule?
Answer: 14.7%

Question: And the “2-Methyl (%) / 5-Chloro (%)” value ([4]; 14.1% norbornene, 7 days)?
Answer: 13.5%

Question: What about the “2-Methyl (%) / 5-Chloro (%)” value ([4]; 14.1% norbornene, 21 days) of the same molecule?
Answer: < 0.1%

Question: What about the “stabilization with norbornene (in words)” value [5] of the same molecule?
Answer: completely stabilized

Question: What about the “2-Methyl (%) / 5-Chloro (%)” value ([6]; 0% norbornene, 0 days) of the same molecule?
Answer: 11.7%

Question: And the “2-Methyl (%) / 5-Chloro (%)” value ([6]; 0% norbornene, 14 days)?
Answer: 0.0%

Question: And the “2-Methyl (%) / 5-Chloro (%)” value ([6]; 0% norbornene, 30 days)?
Answer: 0%

Question: And the “2-Methyl (%) / 5-Chloro (%)” value ([6]; 1.6% norbornene, 0 days)?
Answer: 11.7%

Question: What about the “2-Methyl (%) / 5-Chloro (%)” value ([6]; 1.6% norbornene, 14 days) of the same molecule?
Answer: 0%

Question: What about the “2-Methyl (%) / 5-Chloro (%)” value ([6]; 3.2% norbornene, 0 days) of the same molecule?
Answer: 11.5%

Question: And the “2-Methyl (%) / 5-Chloro (%)” value ([6]; 3.2% norbornene, 14 days)?
Answer: 10.4%

Question: What about the “2-Methyl (%) / 5-Chloro (%)” value ([6]; 3.2% norbornene, 30 days) of the same molecule?
Answer: 0.1%

Question: What about the “2-Methyl (%) / 5-Chloro (%)” value ([6]; 6.5% norbornene, 0 days) of the same molecule?
Answer: 11.2%

Question: What about the “2-Methyl (%) / 5-Chloro (%)” value ([6]; 6.5% norbornene, 14 days) of the same molecule?
Answer: 10.8%

Question: What about the “2-Methyl (%) / 5-Chloro (%)” value ([6]; 6.5% norbornene, 30 days) of the same molecule?
Answer: 10.1%

Question: What about the “2-Methyl (%) / 5-Chloro (%)” value ([6]; 9.0% norbornene, 0 days) of the same molecule?
Answer: 11.0%

Question: What about the “2-Methyl (%) / 5-Chloro (%)” value ([6]; 9.0% norbornene, 14 days) of the same molecule?
Answer: 10.7%

Question: What about the “2-Methyl (%) / 5-Chloro (%)” value ([6]; 9.0% norbornene, 30 days) of the same molecule?
Answer: 10.4%

Question: What about the “2-Methyl (%) / 5-Chloro (%)” value ([6]; 14.3% norbornene, 0 days) of the same molecule?
Answer: 10.5%

Question: What about the “2-Methyl (%) / 5-Chloro (%)” value ([6]; 14.3% norbornene, 14 days) of the same molecule?
Answer: 10.2%

Question: And the “2-Methyl (%) / 5-Chloro (%)” value ([6]; 14.3% norbornene, 30 days)?
Answer: 9.7%

Question: For C1=CC2C3C=CC(C3)C2C1 (centres unmarked) [dicylopentadiene], which “stabilizing properties (in words)” value [7] is on record?
Answer: failed to show any stabilizing properties

Question: For C1=Cc2ccccc2C1 [indene], which “stabilizing properties (in words)” value [7] is on record?
Answer: failed to show any stabilizing properties
